Data reported in ChEMBL document CHEMBL3885861, “Open TG-GATES”.

Organism: Rattus norvegicus
Experiment: Open TG-GATES - Regimen: Single
Type: toxicity, organism-based, Sprague-Dawley
Parameters: regimen Single, gender Male, age 6 weeks
Conditions: in vivo, po, 30 mg/kg, route gavage, dose level High; for APTT / Bas / Eos / Fbg / Hb / Ht / Lym / MCH / MCHC / MCV / Mono / Neu / PT / Plat / RBC / Ret / WBC: tissue Blood; for KIDNEY_L / KIDNEY_R / KIDNEY_TOTAL: tissue Kidney; for LIVER: tissue Liver; for A/G / ALP / ALT / AST / BUN / CRE / Ca / Cl / DBIL / GLC / IP / K / LDH / Na / PL / RALB / TBIL / TC / TG / TP / gamma-GTP: tissue Plasma

## Nc1c2c(nc3ccccc13)CCCC2 [TACRINE]
3 h
  TERMINAL_BW: 205 g
  APTT: 21.4 s
  Bas: 0%
  Eos: 0.6%
  Fbg: 313.8 mg/dL
  Hb: 13.4 g/dL
  Ht: 39.4%
  Lym: 71%
  MCH: 21.4 pg
  MCHC: 34.1%
  MCV: 62.7 fL
  Mono: 2.6%
  Neu: 25%
  PT: 16.4 s
  Plat: 124.7 x10_4/uL
  RBC: 628.2 x10_4/ul
  Ret: 8.7%
  WBC: 55.6 x10_2/uL
  KIDNEY_L: 0.9 g
  KIDNEY_R: 0.9 g
  KIDNEY_TOTAL: 1.9 g
  LIVER: 9 g
  A/G: 1.3
  ALP: 1523.2 IU/L
  ALT: 49.8 IU/L
  AST: 152.2 IU/L
  BUN: 12.6 mg/dL
  CRE: 0.2 mg/dL
  Ca: 10.4 mg/dL
  Cl: 103.8 meq/L
  DBIL: 0 mg/dL
  GLC: 269.6 mg/dL
  IP: 9.9 mg/dL
  K: 3.6 meq/L
  LDH: 369.4 IU/L
  Na: 139.2 meq/L
  PL: 142.6 mg/dL
  RALB: 3.2 g/dL
  TBIL: 0.022 mg/dL
  TC: 78 mg/dL
  TG: 69.8 mg/dL
  TP: 5.7 g/dL
  gamma-GTP: 1.2 IU/L
6 h
  TERMINAL_BW: 199.4 g
  APTT: 20.8 s
  Bas: 0%
  Eos: 0.4%
  Fbg: 327.2 mg/dL
  Hb: 14 g/dL
  Ht: 40.4%
  Lym: 67%
  MCH: 21.1 pg
  MCHC: 34.6%
  MCV: 61 fL
  Mono: 3%
  Neu: 29%
  PT: 15.7 s
  Plat: 124.5 x10_4/uL
  RBC: 662.6 x10_4/ul
  Ret: 7.7%
  WBC: 64.5 x10_2/uL
  KIDNEY_L: 0.9 g
  KIDNEY_R: 0.9 g
  KIDNEY_TOTAL: 1.8 g
  LIVER: 8.9 g
  A/G: 1.2
  ALP: 1476.6 IU/L
  ALT: 51.8 IU/L
  AST: 199.8 IU/L
  BUN: 13.4 mg/dL
  CRE: 0.2 mg/dL
  Ca: 10.6 mg/dL
  Cl: 106.4 meq/L
  DBIL: 0 mg/dL
  GLC: 221.4 mg/dL
  IP: 9.3 mg/dL
  K: 3.9 meq/L
  LDH: 347.2 IU/L
  Na: 142 meq/L
  PL: 146.4 mg/dL
  RALB: 3.3 g/dL
  TBIL: 0.02 mg/dL
  TC: 81.6 mg/dL
  TG: 45.4 mg/dL
  TP: 6 g/dL
  gamma-GTP: 1 IU/L
9 h
  TERMINAL_BW: 202.2 g
  APTT: 21 s
  Bas: 0%
  Eos: 0.4%
  Fbg: 339.6 mg/dL
  Hb: 13.4 g/dL
  Ht: 38.9%
  Lym: 53%
  MCH: 21 pg
  MCHC: 34.3%
  MCV: 61.3 fL
  Mono: 3%
  Neu: 43%
  PT: 15.6 s
  Plat: 128.9 x10_4/uL
  RBC: 634.8 x10_4/ul
  Ret: 8.3%
  WBC: 78.6 x10_2/uL
  KIDNEY_L: 0.9 g
  KIDNEY_R: 0.9 g
  KIDNEY_TOTAL: 1.8 g
  LIVER: 8.4 g
  A/G: 1.3
  ALP: 1511.6 IU/L
  ALT: 64.4 IU/L
  AST: 283 IU/L
  BUN: 11.6 mg/dL
  CRE: 0.2 mg/dL
  Ca: 10.7 mg/dL
  Cl: 106.2 meq/L
  DBIL: 0.004 mg/dL
  GLC: 222.6 mg/dL
  IP: 9 mg/dL
  K: 3.8 meq/L
  LDH: 264.6 IU/L
  Na: 141.4 meq/L
  PL: 160.2 mg/dL
  RALB: 3.3 g/dL
  TBIL: 0.012 mg/dL
  TC: 84 mg/dL
  TG: 42.2 mg/dL
  TP: 5.9 g/dL
  gamma-GTP: 1 IU/L
24 h
  TERMINAL_BW: 192.1 g
  APTT: 20.8 s
  Bas: 0%
  Eos: 1%
  Fbg: 351.6 mg/dL
  Hb: 14.3 g/dL
  Ht: 40.9%
  Lym: 84.4%
  MCH: 21.3 pg
  MCHC: 34.8%
  MCV: 61.2 fL
  Mono: 2.2%
  Neu: 12.4%
  PT: 16.1 s
  Plat: 130.3 x10_4/uL
  RBC: 668.8 x10_4/ul
  Ret: 6.7%
  WBC: 68.9 x10_2/uL
  KIDNEY_L: 0.9 g
  KIDNEY_R: 0.9 g
  KIDNEY_TOTAL: 1.8 g
  LIVER: 7.7 g
  A/G: 1.3
  ALP: 1513.8 IU/L
  ALT: 44.4 IU/L
  AST: 121.6 IU/L
  BUN: 15 mg/dL
  CRE: 0.2 mg/dL
  Ca: 10.8 mg/dL
  Cl: 107.8 meq/L
  DBIL: 0.008 mg/dL
  GLC: 187.6 mg/dL
  IP: 8.8 mg/dL
  K: 4.2 meq/L
  LDH: 259.6 IU/L
  Na: 142.2 meq/L
  PL: 140.4 mg/dL
  RALB: 3.2 g/dL
  TBIL: 0.042 mg/dL
  TC: 88.6 mg/dL
  TG: 31.6 mg/dL
  TP: 5.8 g/dL
  gamma-GTP: 1 IU/L
